pIC50: −log10 of the molar value. Read-outs that look alike come from different tables or passages of the source.
Assays:
K^+ transport = test: K^+ transport: ^86 Rb uptake by P3 membrane fractions of whole mouse brain; format: biochemical, Swiss mice; settings: for pIC50: ^86 Rb uptake, P3 fraction, 0° C., pH 7, 5 seconds; for K^+ transport inhibition activity relative to amodiaquin (in words): fraction of amodiaquin's activity; for K^+ Transport Relative Potency: relative to amodiaquin = 1; for Concentration inhibiting K^+ transport (selection criterion met): submillimolar concentrations
Experimental: To obtain the data set forth in Table I, K^+ -transport was measured using P3 membrane fractions prepared from whole brains of Swiss mice. […] The resulting supernatant was centrifuged at 17,000 g for 15 minutes, and the supernatant from the latter was centrifuged at 70,000 g for 1 hour to pellet the P3 fraction. The P3 pellet was washed by resuspension in 50 mM Tris-citrate (pH 7.3). After 10 minutes on ice, the suspension was centrifuged at 70,000 g for 10 minutes. This washing procedure was repeated twice using distilled water for the resuspension. […] The suspension (2-3 mg protein/ml) was stabilized on ice for 1 hour prior to use. Uptake of ^86 Rb (radioactive) was used to assess the K^+ -transport of the P3 articles. Many published experiments have shown the ^86 Rb, with a half-life 36 times longer than ^42 K, is a suitable tracer for K. Rb permeates neuronal K channels as well as does K itself.
After filtration of the samples, the filters were washed rapidly three times with 10^-3 M triethanolamine containing 0.1M RbCl (non-radioactive) and counted in ACS liquid scintillation cocktail (Amersham). In calculating the results, the uptake found in the presence of 0.1M non-radioactive RbCl was subtracted from that found in the presence of various concentrations of the test substances in the presence of 10^-6 M ^86 RbCl alone. […] Between 0.2 and 0.5 mg/ml usually were employed. The results were normalized by calculating them as percentages of the uptake observed with 10^-6 M ^86 RbCl alone.

[1] = in vivo; cited from earlier work
mice = settings: cited from earlier work
patients with AD = settings: cited from earlier work
cholinesterase = settings: cited from earlier work
Acetylcholinesterase = target: T1, Acetylcholinesterase (Electrophorus electricus, UniProt O42275); test: Acetylcholinesterase activity, acetylthiocholine substrate, colorimetric (Ellman); format: biochemical, electric eel; settings: for Cholinesterase inhibitory potency relative to amodiaquin (in words): fraction of amodiaquin's inhibitory potency; for Acetylcholinesterase Activity Rank Order: rank among the five substances; for Acetylcholinesterase Activity Relative Potency: relative to amodiaquin = 1
T1 construct: The enzyme employed was prepared from the electric organ of the electric eel; from tissue; host or cells: electric organ of the electric eel
Experimental: Cholinesterase activity reported in Table I was measured by a standard procedure. The enzyme employed was prepared from the electric organ of the electric eel. It is known to have the same properties as the enzyme of mammalian nervous tissue. Acetylthiocholine was used as substrate.
Inhibitory potency of substances was determined by measuring enzyme activity in the absence and presence of varying concentrations of the test substances.

T1 sequence (O42275 24-633): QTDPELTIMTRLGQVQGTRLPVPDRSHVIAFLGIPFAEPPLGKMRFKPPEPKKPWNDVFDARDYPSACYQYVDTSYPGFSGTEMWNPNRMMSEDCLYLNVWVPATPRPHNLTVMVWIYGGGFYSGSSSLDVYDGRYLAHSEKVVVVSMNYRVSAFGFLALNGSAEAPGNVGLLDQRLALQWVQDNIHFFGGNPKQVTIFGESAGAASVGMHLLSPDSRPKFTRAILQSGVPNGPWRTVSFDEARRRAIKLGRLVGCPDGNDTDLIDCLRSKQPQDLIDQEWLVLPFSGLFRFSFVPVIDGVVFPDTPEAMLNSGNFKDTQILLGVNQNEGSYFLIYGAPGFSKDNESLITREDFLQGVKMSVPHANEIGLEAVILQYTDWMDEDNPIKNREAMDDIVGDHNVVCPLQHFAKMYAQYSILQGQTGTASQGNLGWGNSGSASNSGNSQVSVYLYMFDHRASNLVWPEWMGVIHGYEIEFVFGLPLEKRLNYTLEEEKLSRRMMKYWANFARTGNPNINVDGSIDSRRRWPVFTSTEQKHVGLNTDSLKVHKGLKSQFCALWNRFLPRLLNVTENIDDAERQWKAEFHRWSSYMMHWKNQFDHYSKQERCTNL

| Structure (SMILES) | pIC50 (K^+ transport) | Effect on general anesthesia [1] | Effect on behavioral deficit produced by anoxia (mice) | Effect on symptoms of AD (patients with AD) | Cholinesterase inhibition (cholinesterase) | pIC50 (Acetylcholinesterase) | K^+ transport inhibition activity relative to amodiaquin (in words) (K^+ transport) | K^+ Transport Relative Potency (K^+ transport) | Concentration inhibiting K^+ transport (selection criterion met) (K^+ transport) | Cholinesterase inhibitory potency relative to amodiaquin (in words) (Acetylcholinesterase) | Acetylcholinesterase Activity Rank Order (Acetylcholinesterase) | Acetylcholinesterase Activity Relative Potency (Acetylcholinesterase) | pIC50 (Acetylcholinesterase; electric eel enzyme, acetylthiocholine substrate, read-out: Acetylcholinesterase Activity IC50) |
| --- | --- | --- | --- | --- | --- | --- | --- | --- | --- | --- | --- | --- | --- |
| Nc1c2ccccc2nc2ccccc12 [9-aminoacridine] | 4.15 |  |  |  |  |  |  |  |  |  |  |  |  |
| Nc1ccncc1 [4AP, 4-aminopyridine] |  | rapidly overcomes the effects of general anesthesia | partially reversed the behavioral deficit | may improve symptoms in some patients with AD |  |  |  |  |  |  |  |  |  |
| CCN(CC)Cc1cc(Nc2ccnc3cc(Cl)ccc23)ccc1O [Amodiaquin, amodiaquin] | 4.40 |  |  |  | effective cholinesterase inhibitor | 8.40 |  |  |  |  |  |  |  |
| CCN(CC)CCCC(C)Nc1c2ccc(Cl)cc2nc2ccc(OC)cc12 (centres unmarked) [Quinacrine, quinacrine] | 4.05 |  |  |  |  | 5.40 | approximately one-half | 0.44 | ≤ 10^-3 M | less than one-thousandth | 4(5) | 0.001 |  |
| CCN(CC)CCCC(C)Nc1ccnc2cc(Cl)ccc12 (centres unmarked) [Chloroquine, chloroquine] | 3.22 |  |  |  |  |  | approximately one-twentieth | 0.067 | ≤ 10^-3 M | less than one-thousandth | 5(4) | 0.001 | 5.40 |

Reference: patent US4806537A (City of Hope, priority 1988, dated 1989)
